In patent US11008346B2, “Beta-lactamase inhibitors” (priority 2014, dated 2021):

Experiments:
SHV-5 β-lactamase = biological target: T1, SHV-5 β-lactamase (Klebsiella pneumoniae, UniProt P0A3M1); assay: β-lactamase enzyme inhibition, SHV-5; assay type: biochemical
T1 construct: made in house; host or cells: E. coli BL21(DE3)
Experimental: (§1) For SHV-5, Kpc-2, p99AmpC and OXA-1 β-lactamases, E. coli BL21(DE3) bacterial cells carrying expression plasmids (expressed as native untagged proteins) for the individual β-lactamases were grown in 1 L of Superbroth (Teknova Inc. Hollister, Calif.) supplemented with 100 μg/ml kanamycin selection and 1×5052 (0.5% glycerol, 0.05% glucose and 0.2% α-lactose) at 35° C. for 18-20 hours. Cells were harvested by centrifugation (4,000×g, 4° C., 20 min), resuspended in 50 ml of 10 mM HEPES pH 7.5 ( 1/20 of the initial volume). The cells were lysed by sonication (5 pulses of 45 seconds) at 45 W on ice. The lysates were clarified by centrifugation at 10,000×g for 40 minutes at 4° C. Samples were diluted 5-fold in 50 mM sodium acetate pH 5.0, stored overnight at 4° C., after which they were centrifuged at 10,000×g for 30 minutes to clarify, and filtered through 0.45 μm filters. The samples were loaded onto a 5 ml Capto S sepharose cation exchange column (GE Healthcare) pre-equilibrated with 50 mM sodium acetate pH 5.0. The column was washed with 5 column volumes of 50 mM sodium acetate pH 5.0 to wash out unbound protein and a linear gradient of NaCl (0 to 500 mM) was used to elute the protein (over 16 CV) from the column. Fractions were assayed for […] activity using Centa (Calbiochem, Gibbstown, N.J.) or Nitrocefin (EMD Millipore chemicals, Darmstadt, Germany) as a reporter β-lactamase substrate for activity in the isolated fractions. Active fractions were pooled, concentrated and further purified by gel filtration chromatography on a Superdex 75 prep grade gel filtration column (GE Healthcare, Piscataway, N.J.) pre-equilibrated in 50 mM Hepes pH 7.5, 150 mM NaCl. Active fractions were pooled, concentrated, and quantitated by BCA protein determination (Thermo Scientific, Rockford, Ill.), dialyzed into PBS and frozen at −80° C. in 20% glycerol until use.
(§2) An equal volume of diluted enzyme stock was added, and the plates were incubated at 37° C. for 15 min. Nitrocefin was used as substrate for p99 AmpC, VIM-2 and OXA-1 and dispensed into each well at a final concentration of 100 μM. Absorbance at 486 nm was immediately monitored for 10 min using a Biotek Powerwave XS2 microplate spectrophotometer using the GEN5 software package (Biotek Instruments, Winooski Vt.). In an analogous fashion, imipenem was used as substrate for KPC-2 and Cefotaxime was used for SHV-5, while changes in absorbance upon hydrolysis of the β-lactam ring were monitored at 300 nm and 260 nm respectively in UV-transparent 96-well microtiter assay plates. Maximum rates of hydrolysis were compared to those in control wells (without inhibitors), and percentages of enzyme inhibition were calculated for each concentration of inhibitor. The concentration of inhibitor needed to reduce the initial rate of hydrolysis of substrate by 50% (IC50) was calculated as the residual activity of β-lactamase at 486 nm using GraFit version 7 kinetics software package (Erithacus Software, Surrey, UK).
(§3) Using the methodology described above, examples of the current invention were evaluated for their ability to inhibit β-lactamase enzymes from all four Ambler classifications (A through D). […] NT=Not tested.

KPC-2 β-lactamase = biological target: T2, KPC-2 β-lactamase (Klebsiella pneumoniae, UniProt Q9F663); assay: β-lactamase enzyme inhibition, KPC-2; assay type: biochemical; conditions: imipenem substrate, 300 nm; 15 min at 37° C. preincubation; read-out: IC50 KPC-2 (Class A)
T2 construct: made in house; host or cells: E. coli BL21(DE3)
Experimental: as §1, §2, §3

[1] = biological target: T3, VIM-2 metallo β-lactamase (Pseudomonas aeruginosa, UniProt Q9K2N0); assay: β-lactamase enzyme inhibition, VIM-2; assay type: biochemical; conditions: Nitrocefin 100 μM, 486 nm; 15 min at 37° C. preincubation; read-out: IC50 VIM-2 (Class B)
T3 construct: made in house; host or cells: E. coli BL21(DE3)
Experimental: For VIM-2 metallo β-lactamase, the procedure was identical with the following exceptions, first the protein was not pH adjusted to pH 5 with 50 mM sodium acetate. Second, the chromatography step was changed to a 5 ml Q sepharose anion exchange column pre-equilibrated with 50 mM Hepes pH 7.5, and elution of the protein was achieved by a linear gradient of NaCl (0-600 mM). Finally, the VIM-2 purification required a second run (3rd step) on the Q sepharose anion exchange column to achieve acceptable purity (>90%).
as §2, §3

p99 AmpC β-lactamase = biological target: T4, p99 AmpC β-lactamase (Enterobacter cloacae, UniProt P05364); assay: β-lactamase enzyme inhibition, p99 AmpC; assay type: biochemical
T4 construct: made in house; host or cells: E. coli BL21(DE3)
Experimental: as §1, §2
Using the methodology described above, examples of the current invention were evaluated for their ability to inhibit β-lactamase enzymes from all four Ambler classifications (A through D).

[2] = tested on: E. coli ESBL4 expressing CTX-M-15; assay: broth microdilution MIC, E. coli CTX-M-15; assay type: cell-based; conditions: Fixed CAZ (ceftazidime) 4 μg/mL
From the text: (§4) To determine the ability of test compounds to potentiate the inhibition of the growth of bacterial strains that produce beta-lactamase enzymes, classic cell based broth microdilution MIC assays were employed. Six bacteria strains producing beta-lactamase enzymes were used: E. coli expressing the Class A Extended Spectrum Beta-Lactamase (ESBL) CTX-M-15, E. cloacae expressing the Class C P99, K. pneumoniae expressing the Class A carbapenemase KPC-3, P. aeruginosa expressing the Class B carbapenemase VIM-2, K pneumoniae expressing the class A carbapenemase KPC-2 and the class B carbapenemase VIM-4, and S. aureus producing the Class A penicillinase PC-1. The assay was conducted in Cation Adjusted Mueller Hinton Broth (CAMHB, BD #212322, BD Diagnostic Systems, Sparks, Md.). Bacteria strains were grown for 3-5 hours in CAMBH broth. Test compounds were added to a microtiter plate in 2-fold serial dilutions in CAMHB in a final concentration range of 32 μg/mL to 0.25 μg/ml. An overlay of CAMHB containing a Beta-lactam was added to the compounds at a final static concentration of 4 μg/ml. […] In addition to the titration of test compounds the MICs of a panel of control beta-lactams is also tested to ensure the strains are behaving consistently from test to test. Once the test compound and antibiotics are added the plates can be inoculated according to CLSI broth microdilution method. After inoculation the plates are incubated for 16-20 hours at 37° C., then the Minimal Inhibitory Concentration (MIC) of the test compound is determined visually.
(§5) Using the methodology described above, examples of the current invention were evaluated for their ability to inhibit the growth of β-lactamase-producing bacteria in the presence of a β-lactam antibiotic.
(§6) Representative results are shown in Table 4 where A represents an MIC of the fixed β-lactam antibiotic in the presence of >32 µg/mL of a β-lactamase inhibitor of exemplary compounds, B represents the MIC in the presence of between 8 and 32 µg/mL of a β-lactamase inhibitor of exemplary compounds, and C represents the MIC in the presence of ≤4 µg/mL of a β-lactamase inhibitor of exemplary compounds. NT=Not Tested.

[3] = tested on: E. cloacae 144200 expressing Class C P99 AmpC; assay: broth microdilution MIC, E. cloacae P99; assay type: cell-based; conditions: Fixed CAZ (ceftazidime) 4 μg/mL
From the text: as §4, §5, §6

[4] = tested on: K. pneumoniae 156319 expressing KPC-3; assay: broth microdilution MIC, K. pneumoniae KPC-3; assay type: cell-based; conditions: Fixed Mero (meropenem) 4 μg/mL
From the text: as §4, §5, §6

[5] = tested on: K. pneumoniae A-1797 expressing KPC-2 and VIM-4; assay: broth microdilution MIC, K. pneumoniae KPC-2 and VIM-4; assay type: cell-based; conditions: Fixed Mero (meropenem) 4 μg/mL
From the text: as §4, §5, §6

T4 sequence (P05364 21-381): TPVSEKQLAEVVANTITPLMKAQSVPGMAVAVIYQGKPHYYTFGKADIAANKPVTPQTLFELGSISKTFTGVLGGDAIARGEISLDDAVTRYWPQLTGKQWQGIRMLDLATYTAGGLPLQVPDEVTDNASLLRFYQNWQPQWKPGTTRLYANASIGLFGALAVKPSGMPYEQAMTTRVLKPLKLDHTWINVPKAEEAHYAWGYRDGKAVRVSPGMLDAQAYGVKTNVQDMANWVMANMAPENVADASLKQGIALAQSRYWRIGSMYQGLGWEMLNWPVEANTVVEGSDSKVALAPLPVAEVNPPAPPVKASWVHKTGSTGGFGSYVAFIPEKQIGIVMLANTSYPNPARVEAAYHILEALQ
T2 sequence (Q9F663 25-293, looked up): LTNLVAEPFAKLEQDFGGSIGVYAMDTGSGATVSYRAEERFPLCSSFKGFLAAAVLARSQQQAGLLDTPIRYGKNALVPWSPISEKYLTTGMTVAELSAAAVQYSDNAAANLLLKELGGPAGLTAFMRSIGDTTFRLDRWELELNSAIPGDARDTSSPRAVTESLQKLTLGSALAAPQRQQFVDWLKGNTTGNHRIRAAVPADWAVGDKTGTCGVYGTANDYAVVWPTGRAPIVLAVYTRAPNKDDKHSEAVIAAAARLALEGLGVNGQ
T1 sequence (P0A3M1 22-286): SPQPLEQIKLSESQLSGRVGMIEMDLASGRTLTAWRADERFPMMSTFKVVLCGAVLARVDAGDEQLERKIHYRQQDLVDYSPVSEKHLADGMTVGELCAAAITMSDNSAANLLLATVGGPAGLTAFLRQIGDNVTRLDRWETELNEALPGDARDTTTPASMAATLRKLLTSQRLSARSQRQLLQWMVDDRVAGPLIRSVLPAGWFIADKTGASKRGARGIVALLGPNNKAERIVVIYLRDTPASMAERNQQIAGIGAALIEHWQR

SMILES | IC50 (SHV-5 β-lactamase) | IC50 (KPC-2 β-lactamase) | IC50 [1] | IC50 (p99 AmpC β-lactamase) | MIC of exemplary compounds in presence of fixed β-lactams, E. coli ESBL4 CTX-M-15 [2] | MIC of exemplary compounds in presence of fixed β-lactams, E. cl. 144200 p99 AmpC [3] | MIC of exemplary compounds in presence of fixed β-lactams, K.P. 156319 KPC-3 [4] | MIC of exemplary compounds in presence of fixed β-lactams, K.P. A-1797 KPC-2 VIM-4 [5]
NS(=O)(=O)CCCC(=O)N[C@H]1Cc2cccc(C(=O)O)c2OB1O [Example 53, (R)-2-Hydroxy-3-(4-sulfamoyl-butyrylamino)-3,4-dihydro-2H-benzo[e][1,2]oxaborinine-8-carboxylic acid] | < 0.1 µM | < 0.1 µM | 10 to 100 µM | < 0.1 µM | C (C represents the MIC in the presence of ≤4 g/mL of a β-lactamase inhibitor) | C (C represents the MIC in the presence of ≤4 g/mL of a β-lactamase inhibitor) | C (C represents the MIC in the presence of ≤4 g/mL of a β-lactamase inhibitor) | B (B represents the MIC in the presence of between 8 and 32 g/mL of a β-lactamase inhibitor)
CNS(=O)(=O)CCC(=O)N[C@H]1Cc2cccc(C(=O)O)c2OB1O [Example 54, (R)-2-Hydroxy-3-(3-methylsulfamoyl-propionylamino)-3,4-dihydro-2H-benzo[e][1,2]oxaborinine-8-carboxylic acid] | < 0.1 µM | < 0.1 µM | 1 to 10 µM | < 0.1 µM | C (C represents the MIC in the presence of ≤4 g/mL of a β-lactamase inhibitor) | C (C represents the MIC in the presence of ≤4 g/mL of a β-lactamase inhibitor) | C (C represents the MIC in the presence of ≤4 g/mL of a β-lactamase inhibitor) | B (B represents the MIC in the presence of between 8 and 32 g/mL of a β-lactamase inhibitor)
CS(=O)(=O)NCCCC(=O)N[C@H]1Cc2cccc(C(=O)O)c2OB1O [Example 57, (R)-2-Hydroxy-3-(4-methanesulfonylamino-butyrylamino)-3,4-dihydro-2H-benzo[e][1,2]oxaborinine-8-carboxylic acid] | < 0.1 µM | < 0.1 µM | 1 to 10 µM | < 0.1 µM | C (C represents the MIC in the presence of ≤4 g/mL of a β-lactamase inhibitor) | – | C (C represents the MIC in the presence of ≤4 g/mL of a β-lactamase inhibitor) | B (B represents the MIC in the presence of between 8 and 32 g/mL of a β-lactamase inhibitor)
CNS(=O)(=O)CCCC(=O)N[C@H]1Cc2cccc(C(=O)O)c2OB1O [Example 58, (R)-2-Hydroxy-3-(4-methylsulfamoyl-butyrylamino)-3,4-dihydro-2H-benzo[e][1,2]oxaborinine-8-carboxylicacid] | < 0.1 µM | < 0.1 µM | 1 to 10 µM | < 0.1 µM | C (C represents the MIC in the presence of ≤4 g/mL of a β-lactamase inhibitor) | – | C (C represents the MIC in the presence of ≤4 g/mL of a β-lactamase inhibitor) | B (B represents the MIC in the presence of between 8 and 32 g/mL of a β-lactamase inhibitor)
CS(=O)(=O)CCCC(=O)N[C@H]1Cc2cccc(C(=O)O)c2OB1O [Example 59, (R)-2-Hydroxy-3-(4-methanesulfonyl-butyrylamino)-3,4-dihydro-2H-benzo[e][1,2]oxaborinine-8-carboxylic acid] | < 0.1 µM | < 0.1 µM | 1 to 10 µM | < 0.1 µM | C (C represents the MIC in the presence of ≤4 g/mL of a β-lactamase inhibitor) | – | C (C represents the MIC in the presence of ≤4 g/mL of a β-lactamase inhibitor) | B (B represents the MIC in the presence of between 8 and 32 g/mL of a β-lactamase inhibitor)
O=C(Cc1ccncc1)N[C@H]1Cc2cccc(C(=O)O)c2OB1O [Example 65, (R)-2-Hydroxy-3-(2-pyridin-4-yl-acetylamino)-3,4-dihydro-2H-benzo[e][1,2]oxaborinine-8-carboxylic acid] | < 0.1 µM | < 0.1 µM | – | < 0.1 µM | C (C represents the MIC in the presence of ≤4 g/mL of a β-lactamase inhibitor) | C (C represents the MIC in the presence of ≤4 g/mL of a β-lactamase inhibitor) | C (C represents the MIC in the presence of ≤4 g/mL of a β-lactamase inhibitor) | C (C represents the MIC in the presence of ≤4 g/mL of a β-lactamase inhibitor)
